Measurements: patent US12286443B2, “Bycyclic JAK inhibitors and uses thereof” (Insilico Medicine IP Limited, priority 2019, dated 2025)
pIC50: −log10 of the molar value.

What follows are compounds tested against T1, JAK1 (Homo sapiens, UniProt P23458) (assay: Inhibition of JAK1 kinase, LANCE Ultra TR-FRET assay). Settings: 2 nM JAK1, 2x ATP 76 μM, 15 min pre-incubation, 90 min reaction, 23° C.
T1 construct: purchased Invitrogen PV4775
Format: biochemical
Procedure: (§1) Exemplary compounds were assayed to determine potency in inhibiting activity of JAK1-3 and TYK2 kinases by determining IC50 values.
(§2) The sources of test materials and equipment are as follows: JAK1 (Invitrogen, Cat. No PV4775), JAK2 (Invitrogen, Cat. No PV4210), JAK3 (Invitrogen, Cat. No PV4080), TYK2 (Invitrogen, Cat. No PR8440C), ATP (Sigma, Cat. No. A7699-1G), DMSO (Sigma, Cat. No. D2650), DTT (Sigma, Cat. No. 43815), 384 wells_compound plate (Greiner, Cat. No. 781280), 384 wells_assay plate (Perkin Elmer, Cat. No. 6007299), LANCE Ultra ULight™-JAK-1 peptide (Perkin Elmer, Cat. No. TRF0121), LANCET™ Eu-W1024 Anti-phosphotyrosine (PT66) (Perkin Elmer, Cat. No. AD0069), LANCET™ Detection Buffer(Perkin Elmer, Cat. No. CR97-100).
(§3) The concentrations of test compounds varied from 100 μM to 1.7 nM with 3-fold dilution, 11 points, in duplicates while the concentrations of the reference compound, Tofacitinib, varied from 1 μM to 0.017 nM with 3-fold dilution, 11 points, in duplicates.
(§4) The assay buffer contained 50 mM HEPES (pH 7.5), 0.01% Brij-35, 10 mM MgCl2, 1 mM EDTA, 2 mM DTT. Incubations were carried out at 23° C.
(§5) Prior to the assay, enzyme, peptide substrate and serially diluted test compounds were pre-incubated together in assay buffer (5 μL) for 15 minutes (peptide substrate concentration: 50 nM; JAK enzyme concentrations: 2 nM JAK1; […]; […] and 4 nM TYK2). And the assay was initiated by the addition of 5 μL assay buffer containing 2× final ATP concentration (these are the 2×ATP concentrations: 76 μM JAK1; 24 μM JAK2; 8 μM JAK3 and 30 μM TYK2). Following the 90-minute incubation, antibody conjugated with Eu is dissolved in detection buffer to add into wells and then incubated for 60 minutes. The 10 μL detection buffer contains EDTA to stop the enzymatic reaction. The plate is analyzed by Perkin Elmer Envision on TR-FRET mode. The high ratio of 665/615 represents no inhibition of kinase reaction while the low ratio of 665/615 represents complete inhibition of kinase reaction.
(§6) Curves are fit by XLFIT5 as inhibition rate % vs. log [compound concentration] using 4 parameters logistic model 205.
(§7) In the table, “A” indicates an IC50 of less than 100 nM, “B” indicates an IC50 range from 100 nM to 500 nM; “C” indicates an IC50 range from 500 nM to 2 μM; and “D” indicates an IC50 greater than 2 μM. Also, “na” indicates data is not available.

T1 sequence (P23458 whole entry): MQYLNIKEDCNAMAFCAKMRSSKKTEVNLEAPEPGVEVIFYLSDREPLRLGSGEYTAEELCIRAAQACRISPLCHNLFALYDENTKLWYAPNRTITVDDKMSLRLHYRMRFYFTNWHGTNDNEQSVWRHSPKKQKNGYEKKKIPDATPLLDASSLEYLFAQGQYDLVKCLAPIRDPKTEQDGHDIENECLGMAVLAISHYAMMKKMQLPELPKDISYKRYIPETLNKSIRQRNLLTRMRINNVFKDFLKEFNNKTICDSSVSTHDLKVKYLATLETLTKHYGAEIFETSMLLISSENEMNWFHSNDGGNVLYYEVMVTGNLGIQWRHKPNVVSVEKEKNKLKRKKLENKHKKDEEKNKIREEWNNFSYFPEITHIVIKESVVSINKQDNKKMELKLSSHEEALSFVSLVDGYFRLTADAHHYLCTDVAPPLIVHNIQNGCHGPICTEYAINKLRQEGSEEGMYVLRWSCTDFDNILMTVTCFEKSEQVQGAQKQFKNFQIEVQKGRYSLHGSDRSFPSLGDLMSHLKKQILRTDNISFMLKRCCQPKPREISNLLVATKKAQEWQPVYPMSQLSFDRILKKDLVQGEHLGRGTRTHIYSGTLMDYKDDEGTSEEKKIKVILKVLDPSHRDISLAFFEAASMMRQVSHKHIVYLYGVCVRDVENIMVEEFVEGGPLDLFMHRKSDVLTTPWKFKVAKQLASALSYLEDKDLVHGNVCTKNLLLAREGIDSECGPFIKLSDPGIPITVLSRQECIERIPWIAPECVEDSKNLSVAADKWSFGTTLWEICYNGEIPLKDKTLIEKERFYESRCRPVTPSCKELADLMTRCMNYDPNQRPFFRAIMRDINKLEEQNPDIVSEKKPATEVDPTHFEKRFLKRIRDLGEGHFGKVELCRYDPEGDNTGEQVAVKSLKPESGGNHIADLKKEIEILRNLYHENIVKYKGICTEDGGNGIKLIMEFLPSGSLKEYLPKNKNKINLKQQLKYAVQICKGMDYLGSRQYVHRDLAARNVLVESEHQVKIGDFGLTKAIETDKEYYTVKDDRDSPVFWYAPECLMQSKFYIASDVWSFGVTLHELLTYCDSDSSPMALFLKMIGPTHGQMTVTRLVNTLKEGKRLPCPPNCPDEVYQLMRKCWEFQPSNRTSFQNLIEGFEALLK

pIC50, < 5.70:
CS(=O)(=O)N1CCC(CCNC(=O)c2noc3c2CN(c2ncnc4[nH]ccc24)CC3)C1 (centres unmarked) [Compound 165]

pIC50, 5.70 to 6.30:
CS(=O)(=O)N1CCCC1CCNC(=O)c1noc2c1CN(c1ncnc3[nH]ccc13)CC2 (centres unmarked) [Compound 164]
CS(=O)(=O)N1CCC(CNC(=O)c2noc3c2CN(c2ncnc4[nH]ccc24)CC3)C1 (centres unmarked) [Compound 166]
CS(=O)(=O)N1CC(CNC(=O)c2noc3c2CN(c2ncnc4[nH]ccc24)CC3)C1 [Compound 168]
CS(=O)(=O)N1CC(CCNC(=O)c2noc3c2CN(c2ncnc4[nH]ccc24)CC3)C1 [Compound 169]

pIC50, 6.30 to 7.00:
O=C(NCCc1ccccc1)c1noc2c1CN(c1ncnc3[nH]ccc13)CC2 [Compound 163]
CS(=O)(=O)N1CCN(CCNC(=O)c2noc3c2CN(c2ncnc4[nH]ccc24)CC3)CC1 [Compound 167]
CS(=O)(=O)C(CCNC(=O)c1noc2c1CN(c1ncnc3[nH]ccc13)CC2)C(F)(F)F (centres unmarked) [Compound 170]

The compounds below were run against T2, TYK2 (Homo sapiens, UniProt P29597) (assay: Inhibition of TYK2 kinase, LANCE Ultra TR-FRET assay). Settings: 4 nM TYK2, 2x ATP 30 μM, 15 min pre-incubation, 90 min reaction, 23° C., read-out: tyk IC50.
T2 construct: purchased Invitrogen PR8440C
T2 sequence (P29597 whole entry): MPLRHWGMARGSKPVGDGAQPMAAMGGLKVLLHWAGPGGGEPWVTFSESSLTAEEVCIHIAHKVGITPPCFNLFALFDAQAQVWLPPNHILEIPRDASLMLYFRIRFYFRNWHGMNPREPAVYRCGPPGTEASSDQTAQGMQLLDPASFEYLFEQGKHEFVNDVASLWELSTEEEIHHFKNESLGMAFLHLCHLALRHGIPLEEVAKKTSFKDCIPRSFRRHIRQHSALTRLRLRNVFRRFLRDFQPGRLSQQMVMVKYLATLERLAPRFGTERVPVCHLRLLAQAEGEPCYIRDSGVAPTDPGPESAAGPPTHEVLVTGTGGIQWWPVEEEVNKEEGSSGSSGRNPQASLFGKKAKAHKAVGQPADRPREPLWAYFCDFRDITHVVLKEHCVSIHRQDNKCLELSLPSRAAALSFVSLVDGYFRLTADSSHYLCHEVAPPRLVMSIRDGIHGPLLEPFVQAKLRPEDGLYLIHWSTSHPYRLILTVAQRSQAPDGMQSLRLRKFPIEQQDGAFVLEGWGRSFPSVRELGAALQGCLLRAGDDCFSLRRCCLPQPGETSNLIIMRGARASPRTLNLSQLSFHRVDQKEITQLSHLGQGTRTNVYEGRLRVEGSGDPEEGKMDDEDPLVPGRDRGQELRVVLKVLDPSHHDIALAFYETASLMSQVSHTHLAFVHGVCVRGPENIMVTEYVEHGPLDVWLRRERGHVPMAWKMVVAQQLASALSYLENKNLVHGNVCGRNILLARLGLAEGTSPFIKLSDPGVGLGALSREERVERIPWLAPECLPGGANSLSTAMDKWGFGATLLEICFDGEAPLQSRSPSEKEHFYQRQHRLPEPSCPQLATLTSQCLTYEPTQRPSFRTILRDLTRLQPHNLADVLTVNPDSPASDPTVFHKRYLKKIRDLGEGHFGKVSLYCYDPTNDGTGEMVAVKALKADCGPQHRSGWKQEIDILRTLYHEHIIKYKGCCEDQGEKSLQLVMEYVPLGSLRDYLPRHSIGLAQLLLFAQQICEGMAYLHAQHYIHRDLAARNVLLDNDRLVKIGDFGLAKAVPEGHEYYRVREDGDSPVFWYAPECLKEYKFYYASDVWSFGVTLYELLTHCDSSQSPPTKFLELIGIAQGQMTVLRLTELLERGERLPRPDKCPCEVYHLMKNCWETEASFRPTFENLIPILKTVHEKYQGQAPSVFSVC
Format: biochemical
Procedure: as §1, §2, §3, §4, §5, §6, §7

pIC50, < 5.70:
O=C(NCCc1ccccc1)c1noc2c1CN(c1ncnc3[nH]ccc13)CC2 [Compound 163]
CS(=O)(=O)N1CCCC1CCNC(=O)c1noc2c1CN(c1ncnc3[nH]ccc13)CC2 (centres unmarked) [Compound 164]
CS(=O)(=O)N1CCC(CCNC(=O)c2noc3c2CN(c2ncnc4[nH]ccc24)CC3)C1 (centres unmarked) [Compound 165]
CS(=O)(=O)N1CCC(CNC(=O)c2noc3c2CN(c2ncnc4[nH]ccc24)CC3)C1 (centres unmarked) [Compound 166]
CS(=O)(=O)N1CCN(CCNC(=O)c2noc3c2CN(c2ncnc4[nH]ccc24)CC3)CC1 [Compound 167]
CS(=O)(=O)N1CC(CNC(=O)c2noc3c2CN(c2ncnc4[nH]ccc24)CC3)C1 [Compound 168]
CS(=O)(=O)N1CC(CCNC(=O)c2noc3c2CN(c2ncnc4[nH]ccc24)CC3)C1 [Compound 169]
CS(=O)(=O)C(CCNC(=O)c1noc2c1CN(c1ncnc3[nH]ccc13)CC2)C(F)(F)F (centres unmarked) [Compound 170]

What follows are compounds tested against T3, JAK2 (Homo sapiens, UniProt O60674) (assay: Inhibition of JAK2 kinase, LANCE Ultra TR-FRET assay). Settings: 2x ATP 24 μM, 15 min pre-incubation, 90 min reaction, 23° C.
T3 construct: purchased Invitrogen PV4210
T3 sequence (O60674 whole entry): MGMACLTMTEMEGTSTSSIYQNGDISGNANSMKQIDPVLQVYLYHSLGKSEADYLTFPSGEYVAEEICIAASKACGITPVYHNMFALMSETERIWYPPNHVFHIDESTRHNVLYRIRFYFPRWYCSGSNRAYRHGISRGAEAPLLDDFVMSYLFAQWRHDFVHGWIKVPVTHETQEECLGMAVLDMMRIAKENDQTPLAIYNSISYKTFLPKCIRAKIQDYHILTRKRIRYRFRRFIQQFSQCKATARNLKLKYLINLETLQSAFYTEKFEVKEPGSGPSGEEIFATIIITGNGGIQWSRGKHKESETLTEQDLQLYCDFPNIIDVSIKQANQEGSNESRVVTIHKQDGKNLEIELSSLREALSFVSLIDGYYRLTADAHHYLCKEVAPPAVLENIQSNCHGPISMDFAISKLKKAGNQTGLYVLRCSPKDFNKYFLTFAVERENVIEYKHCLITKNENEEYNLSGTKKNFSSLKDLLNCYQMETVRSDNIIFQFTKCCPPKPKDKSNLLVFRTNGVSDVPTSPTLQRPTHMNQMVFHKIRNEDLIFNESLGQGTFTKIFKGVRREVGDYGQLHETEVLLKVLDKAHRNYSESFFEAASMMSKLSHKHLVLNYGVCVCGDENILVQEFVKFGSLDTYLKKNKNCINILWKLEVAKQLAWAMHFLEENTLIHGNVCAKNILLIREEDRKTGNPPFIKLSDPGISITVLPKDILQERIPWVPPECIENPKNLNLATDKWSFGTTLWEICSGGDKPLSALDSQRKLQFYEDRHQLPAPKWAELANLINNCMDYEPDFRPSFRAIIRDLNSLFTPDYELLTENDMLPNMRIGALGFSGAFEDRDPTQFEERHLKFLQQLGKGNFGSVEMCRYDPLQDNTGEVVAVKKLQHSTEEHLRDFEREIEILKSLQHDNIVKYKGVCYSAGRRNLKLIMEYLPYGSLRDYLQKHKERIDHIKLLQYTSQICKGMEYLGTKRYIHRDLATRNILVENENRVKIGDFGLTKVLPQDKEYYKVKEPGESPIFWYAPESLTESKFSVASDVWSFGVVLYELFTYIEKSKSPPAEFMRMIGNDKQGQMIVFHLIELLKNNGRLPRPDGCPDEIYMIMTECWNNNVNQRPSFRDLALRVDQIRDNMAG
Format: biochemical
Procedure: as §1, §2, §3, §4, §5, §6, §7

pIC50, < 5.70:
CS(=O)(=O)N1CCCC1CCNC(=O)c1noc2c1CN(c1ncnc3[nH]ccc13)CC2 (centres unmarked) [Compound 164]
CS(=O)(=O)N1CCC(CCNC(=O)c2noc3c2CN(c2ncnc4[nH]ccc24)CC3)C1 (centres unmarked) [Compound 165]

pIC50, 5.70 to 6.30:
CS(=O)(=O)N1CCC(CNC(=O)c2noc3c2CN(c2ncnc4[nH]ccc24)CC3)C1 (centres unmarked) [Compound 166]
CS(=O)(=O)N1CCN(CCNC(=O)c2noc3c2CN(c2ncnc4[nH]ccc24)CC3)CC1 [Compound 167]
CS(=O)(=O)N1CC(CNC(=O)c2noc3c2CN(c2ncnc4[nH]ccc24)CC3)C1 [Compound 168]
CS(=O)(=O)N1CC(CCNC(=O)c2noc3c2CN(c2ncnc4[nH]ccc24)CC3)C1 [Compound 169]

pIC50, 6.30 to 7.00:
O=C(NCCc1ccccc1)c1noc2c1CN(c1ncnc3[nH]ccc13)CC2 [Compound 163]
CS(=O)(=O)C(CCNC(=O)c1noc2c1CN(c1ncnc3[nH]ccc13)CC2)C(F)(F)F (centres unmarked) [Compound 170]

Each compound was assayed against T4, JAK3 (Homo sapiens, UniProt P52333) (assay: Inhibition of JAK3 kinase, LANCE Ultra TR-FRET assay). Settings: 2x ATP 8 μM, 15 min pre-incubation, 90 min reaction, 23° C.
T4 construct: purchased Invitrogen PV4080
T4 sequence (P52333 1-1124): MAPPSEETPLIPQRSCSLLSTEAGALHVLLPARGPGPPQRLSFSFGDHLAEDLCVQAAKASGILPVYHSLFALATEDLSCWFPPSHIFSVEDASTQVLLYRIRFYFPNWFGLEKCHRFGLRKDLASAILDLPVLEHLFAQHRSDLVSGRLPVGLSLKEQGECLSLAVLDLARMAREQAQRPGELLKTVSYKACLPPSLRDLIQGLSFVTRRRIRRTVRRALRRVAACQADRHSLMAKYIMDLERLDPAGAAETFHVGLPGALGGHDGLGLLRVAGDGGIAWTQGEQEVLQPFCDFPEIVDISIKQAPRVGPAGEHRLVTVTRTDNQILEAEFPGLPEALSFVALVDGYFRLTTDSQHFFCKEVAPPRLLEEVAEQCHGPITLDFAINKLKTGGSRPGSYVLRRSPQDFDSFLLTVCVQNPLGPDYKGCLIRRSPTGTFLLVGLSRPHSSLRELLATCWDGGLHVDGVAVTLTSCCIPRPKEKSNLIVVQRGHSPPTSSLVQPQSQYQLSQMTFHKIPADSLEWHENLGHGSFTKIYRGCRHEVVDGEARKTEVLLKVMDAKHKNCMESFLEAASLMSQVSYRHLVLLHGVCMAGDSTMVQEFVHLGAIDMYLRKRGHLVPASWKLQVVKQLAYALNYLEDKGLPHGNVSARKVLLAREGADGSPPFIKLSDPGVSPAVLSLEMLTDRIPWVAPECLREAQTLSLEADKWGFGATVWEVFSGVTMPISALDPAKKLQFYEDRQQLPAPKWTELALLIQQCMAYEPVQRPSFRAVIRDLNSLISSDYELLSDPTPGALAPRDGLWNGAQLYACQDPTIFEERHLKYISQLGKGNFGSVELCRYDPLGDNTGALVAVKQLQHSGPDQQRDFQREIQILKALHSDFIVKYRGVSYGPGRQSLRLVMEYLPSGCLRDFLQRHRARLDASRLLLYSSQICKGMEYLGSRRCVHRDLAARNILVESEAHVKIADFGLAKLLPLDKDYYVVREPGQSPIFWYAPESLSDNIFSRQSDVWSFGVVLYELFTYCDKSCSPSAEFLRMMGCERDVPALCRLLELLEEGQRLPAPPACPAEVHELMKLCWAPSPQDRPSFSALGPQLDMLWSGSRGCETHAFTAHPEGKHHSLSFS
Format: biochemical
Procedure: as §1, §2, §3, §4, §5, §6, §7

pIC50, 6.30 to 7.00:
CS(=O)(=O)N1CCCC1CCNC(=O)c1noc2c1CN(c1ncnc3[nH]ccc13)CC2 (centres unmarked) [Compound 164]
CS(=O)(=O)N1CCC(CNC(=O)c2noc3c2CN(c2ncnc4[nH]ccc24)CC3)C1 (centres unmarked) [Compound 166]
CS(=O)(=O)N1CCN(CCNC(=O)c2noc3c2CN(c2ncnc4[nH]ccc24)CC3)CC1 [Compound 167]
CS(=O)(=O)N1CC(CNC(=O)c2noc3c2CN(c2ncnc4[nH]ccc24)CC3)C1 [Compound 168]
CS(=O)(=O)N1CC(CCNC(=O)c2noc3c2CN(c2ncnc4[nH]ccc24)CC3)C1 [Compound 169]
CS(=O)(=O)C(CCNC(=O)c1noc2c1CN(c1ncnc3[nH]ccc13)CC2)C(F)(F)F (centres unmarked) [Compound 170]

pIC50, < 5.70:
CS(=O)(=O)N1CCC(CCNC(=O)c2noc3c2CN(c2ncnc4[nH]ccc24)CC3)C1 (centres unmarked) [Compound 165]

pIC50, > 7.00:
O=C(NCCc1ccccc1)c1noc2c1CN(c1ncnc3[nH]ccc13)CC2 [Compound 163]
